Reference: article PMC2656214, “A circuit supporting concentration-invariant odor perception in Drosophila” (Journal of Biology, 2009)

Assays:
Experiment in all cases: G-CaMP calcium imaging of OSN axon terminals
Format in all cases: cell-based
Conditions in all cases: 10^-2 odor dilution in paraffin oil, 1 s pulse
Or35a = molecular target: T1, Or35a (Drosophila melanogaster, UniProt Q9V3Q2)
T1 construct: native receptor in Or35a olfactory sensory neuron of larva; G-CaMP1.3 calcium imaging at axon terminals; with Odorant receptor coreceptor
T1 sequence (Q9V3Q2 1-409): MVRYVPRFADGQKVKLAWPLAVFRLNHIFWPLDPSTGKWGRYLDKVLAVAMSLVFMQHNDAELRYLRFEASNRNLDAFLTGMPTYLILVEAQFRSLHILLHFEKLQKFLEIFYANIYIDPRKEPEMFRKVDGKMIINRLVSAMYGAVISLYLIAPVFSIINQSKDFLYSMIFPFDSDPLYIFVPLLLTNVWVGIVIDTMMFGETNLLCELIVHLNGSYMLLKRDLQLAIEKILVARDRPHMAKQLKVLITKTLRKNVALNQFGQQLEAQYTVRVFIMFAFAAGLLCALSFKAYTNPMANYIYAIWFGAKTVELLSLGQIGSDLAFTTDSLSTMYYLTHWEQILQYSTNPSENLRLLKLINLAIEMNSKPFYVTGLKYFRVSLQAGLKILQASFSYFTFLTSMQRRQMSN
T1 sequence (Q9VNB5 1-486 partner): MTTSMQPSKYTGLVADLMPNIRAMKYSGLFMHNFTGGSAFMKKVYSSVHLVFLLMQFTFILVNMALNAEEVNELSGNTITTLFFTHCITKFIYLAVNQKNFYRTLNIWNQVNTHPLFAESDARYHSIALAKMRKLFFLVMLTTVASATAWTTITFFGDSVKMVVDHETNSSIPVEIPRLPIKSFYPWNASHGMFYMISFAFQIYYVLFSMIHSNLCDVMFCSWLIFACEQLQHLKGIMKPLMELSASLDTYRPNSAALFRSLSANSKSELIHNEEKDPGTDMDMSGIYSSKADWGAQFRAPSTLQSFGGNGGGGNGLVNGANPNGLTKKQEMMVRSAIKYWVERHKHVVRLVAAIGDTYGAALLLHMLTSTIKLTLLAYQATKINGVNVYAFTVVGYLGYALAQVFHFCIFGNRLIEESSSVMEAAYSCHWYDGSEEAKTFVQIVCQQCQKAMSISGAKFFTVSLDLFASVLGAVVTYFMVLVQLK

Or42a = molecular target: T2, Or42a (Drosophila melanogaster, UniProt Q9V9I2)
T2 construct: native receptor in Or42a olfactory sensory neuron of larva; G-CaMP calcium imaging; with Odorant receptor coreceptor
T2 sequence (Q9V9I2 1-406): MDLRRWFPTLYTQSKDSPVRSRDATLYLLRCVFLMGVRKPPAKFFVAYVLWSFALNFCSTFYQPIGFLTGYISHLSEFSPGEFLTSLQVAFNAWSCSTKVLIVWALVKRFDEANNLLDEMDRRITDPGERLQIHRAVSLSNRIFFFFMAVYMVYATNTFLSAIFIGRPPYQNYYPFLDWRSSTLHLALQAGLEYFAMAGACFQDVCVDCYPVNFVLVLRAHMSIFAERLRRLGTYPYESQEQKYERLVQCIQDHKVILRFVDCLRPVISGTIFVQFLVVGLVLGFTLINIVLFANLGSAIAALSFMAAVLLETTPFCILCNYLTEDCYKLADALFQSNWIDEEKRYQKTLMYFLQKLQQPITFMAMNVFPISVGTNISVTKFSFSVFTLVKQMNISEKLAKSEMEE
T2 sequence (Q9VNB5 1-486 partner): T1 sequence (Q9VNB5 1-486 partner)

Or82a = molecular target: T3, Or82a (Drosophila melanogaster, UniProt P82986)
T3 construct: native receptor in Or82a olfactory sensory neuron of larva; G-CaMP1.3 calcium imaging at axon terminals; with Odorant receptor coreceptor
T3 sequence (P82986 1-385): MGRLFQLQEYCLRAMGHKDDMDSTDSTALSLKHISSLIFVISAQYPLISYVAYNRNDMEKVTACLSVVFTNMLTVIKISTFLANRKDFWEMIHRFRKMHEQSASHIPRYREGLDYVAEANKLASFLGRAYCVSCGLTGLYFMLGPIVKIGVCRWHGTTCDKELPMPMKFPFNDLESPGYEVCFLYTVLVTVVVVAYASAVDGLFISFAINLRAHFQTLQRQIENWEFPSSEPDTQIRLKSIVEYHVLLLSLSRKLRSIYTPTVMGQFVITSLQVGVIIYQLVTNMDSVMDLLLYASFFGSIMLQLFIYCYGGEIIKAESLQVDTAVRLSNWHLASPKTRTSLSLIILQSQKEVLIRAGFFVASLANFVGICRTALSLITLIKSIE
T3 sequence (Q9VNB5 1-486 partner): T1 sequence (Q9VNB5 1-486 partner)

| SMILES | G-CaMP calcium imaging of OSN axon terminals (Or35a) | other results |
| --- | --- | --- |
| CCCCCCOC(C)=O [hexyl acetate] | hexyl acetate and cyclohexanone selectively activated only Or35a |  |
| O=C1CCCCC1 [cyclohexanone] | hexyl acetate and cyclohexanone selectively activated only Or35a |  |
| CCCCCC(C)=O [2-Heptanone] |  | G-CaMP calcium imaging of OSN axon terminals (Or42a): 2-Heptanone, which selectively activates Or42a but not Or42b OSNs |
| CC(=O)OC/C=C(\C)CCC=C(C)C [geranyl acetate] |  | G-CaMP calcium imaging of OSN axon terminals (Or82a): Or82a-expressing neurons responded only to geranyl acetate |
